{"source": "patent US6677344B2", "about": "“Chymase inhibitor for the treatment of eosinophilia” (Daiichi Suntory Pharma Co., Ltd., priority 2000, dated 2004)", "key": {"Human heart chymase": {"target": "T1, Human heart chymase (Homo sapiens, UniProt P23946)", "T1 construct": "Human heart chymase was purified according to the method of Urata et al; from tissue; host or cells: human heart", "T1 sequence (P23946 22-247)": "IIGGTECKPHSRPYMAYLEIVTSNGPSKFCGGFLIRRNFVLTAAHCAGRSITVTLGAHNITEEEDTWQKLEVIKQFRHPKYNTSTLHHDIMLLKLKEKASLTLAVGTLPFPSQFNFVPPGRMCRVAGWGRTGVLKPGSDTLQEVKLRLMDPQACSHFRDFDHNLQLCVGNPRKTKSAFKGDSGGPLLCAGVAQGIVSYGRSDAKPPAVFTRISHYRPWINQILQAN", "assay": "Measurement of chymase inhibitory activity", "type": "biochemical", "details": "substrate Suc-Ala-Ala-Pro-Phe-MCA, 30° C., pH 7.5", "method": "Human heart chymase was purified according to the method of Urata et al. (J. Biol. Chem., 1990, 265, 22348). The inhibitory activity of the compound of the present invention was determined as follows. Purified enzyme was diluted with 0.1M tris-HCl buffer (pH=7.5), 1M sodium chloride, and 0.01% TritonX-100 to obtain an enzyme solution having appropriate concentrations. Suc-Ala-Ala-Pro-Phe-MCA (Peptide Institute Inc.) was dissolved in 10 mM dimethyl sulfoxide (hereinafter referred to as DMSO) and diluted 20-fold with 0.1M Tris-HCl buffer (pH 7.5) containing 1M sodium chloride and 0.01% TritonX-100 to an appropriate concentration to prepare substrate solution.\n5 μl of the test sample in DMSO was added to 75 μl of the enzyme solution and preincubated at 30° C. for 10 minutes. Then, 20 μl of the substrate solution was added to the test sample-enzyme mixture, and incubated at 30° C. Ten minutes later, 50 μl of 30% acetic acid was added to stop the enzymatic reaction, and the amount of AMC formed was determined using a fluorophotometer. At the same time, 5 μl of DMSO in stead of the test sample was added and reacted simultaneously as a control. The inhibitory activity to human chymase was calculated based on the value of the control, and then the inhibition percentage and the 50% inhibition concentration (IC50) were determined."}, "[1]": {"system": "eosinophils in the peripheral blood of Nb infected mice", "assay": "Increase in eosinophils of mice infected with Nippostrongylus brasiliensis (Nb)", "type": "in vivo", "method": "(§1) Male BALB/c mice (7-weeks old) were transcutaneously inflected with 750 parasitic worms of Nippostrongylus brasiliensis (Nb) (third stage larvae) in accordance with an already reported method (Int. Arch. Allergy Immunol. 117, Suppl. 1, 2, 1998). After two weeks, the number of eosinophils in the peripheral blood and the total number of leukocytes in the peripheral blood were measured. Further, at day 7 and day 10, the number of eggs in the feces was measured. The chymase inhibitor (Compound 18) was dissolved in saline and injected intraperitoneally in 0.2 ml amounts once a day continuously from the day before infection until the end of the test. Note that the control group was administered only saline. The number of cells in the peripheral blood was measured by sampling peripheral blood from the eye cavity. The eosinophils were stained with a Hinkelman's solution, then counted under a microscope. Further, the total number of leukocytes was measured under a microscope after staining with by a Turk's solution. The number of eggs in the feces was determined by obtaining individual feces of the mice, measuring their weight, then dissolving them in 1 ml of 10% formalin, counting the number of eggs in the feces solution under a microscope, then expressing the result as the number of eggs per gram of feces."}, "[2]": {"system": "Nippostrongylus brasiliensis (Nb)", "assay": "Number of eggs in feces in Nb infected mice", "type": "in vivo", "method": "as §1"}, "[3]": {"details": "50 mg/kg, intraperitoneal once a day, BALB/c mice, 2 weeks after Nb infection"}}, "data": [{"smiles": "CC(C(=O)O)C(=O)Nc1cccc(S(=O)(=O)n2c(=O)[nH]c3cc(Cl)ccc3c2=O)c1", "note": "(stereo not shown) [Compound 13, 2-{3-[(7-chloro-2,4(1H,3H)-quinazolinedion-3-yl)sulfonyl]phenylaminocarbonyl}propionic acid]", "values": [{"measurement": "IC50", "setting": "Human heart chymase", "result": 300, "unit": "nM"}]}, {"smiles": "Nc1cc(S(=O)(=O)n2c(=O)[nH]c3cc(Cl)ccc3c2=O)ccc1C(=O)[O-].[Na+]", "note": "[Compound 18, 4-[(7-chloro-2,4(1H,3H)-quinazolinedion-3-yl)sulfonyl]anthranilic acid monosodium salt]", "values": [{"measurement": "Number of eosinophils in peripheral blood, 2 weeks after infection", "setting": "[1]; 2 mg/kg, intraperitoneal once a day, BALB/c mice, 2 weeks after Nb infection", "result": "1036 ± 240", "unit": "no./mm^3"}, {"measurement": "Number of eosinophils in peripheral blood, before infection", "setting": "[1]; 2 mg/kg, intraperitoneal once a day, BALB/c mice", "result": "30 ± 12", "unit": "no./mm^3"}, {"measurement": "Number of eosinophils in peripheral blood, 2 weeks after infection", "setting": "[1]; 10 mg/kg, intraperitoneal once a day, BALB/c mice, 2 weeks after Nb infection", "result": "818 ± 155", "unit": "no./mm^3"}, {"measurement": "Number of eosinophils in peripheral blood, before infection", "setting": "[1]; 10 mg/kg, intraperitoneal once a day, BALB/c mice", "result": "36 ± 11", "unit": "no./mm^3"}, {"measurement": "Number of eosinophils in peripheral blood, 2 weeks after infection", "setting": "[1]; [3]", "result": "360 ± 66", "unit": "no./mm^3"}, {"measurement": "Total no. of leukocytes in peripheral blood 2 weeks after infection", "setting": "[1]; [3]", "result": "5820 ± 460", "unit": "no./mm^3"}, {"measurement": "Number of eosinophils in peripheral blood, before infection", "setting": "[1]; 50 mg/kg, intraperitoneal once a day, BALB/c mice", "result": "32 ± 16", "unit": "no./mm^3"}, {"measurement": "Effect on Nb-induced increase in the number of eosinophils", "setting": "[1]; 50 mg/kg/day, Dunnett's test, 2 weeks after infection", "result": "significantly suppressed"}, {"measurement": "Effect on the total number of leukocytes in the peripheral blood", "setting": "[1]; Nb infected mice, 2 weeks after infection", "result": "little effect"}, {"measurement": "No. of Nb eggs in gram of feces, Day 7", "setting": "[2]; 50 mg/kg, intraperitoneal once a day, day 7 after Nb infection", "result": "30541 ± 12501 eggs per gram of feces"}, {"measurement": "No. of Nb eggs in gram of feces, Day 10", "setting": "[2]; 50 mg/kg, intraperitoneal once a day, day 10 after Nb infection", "result": "558 ± 1248 eggs per gram of feces"}, {"measurement": "Difference in number of eggs of Nb versus group not administered", "setting": "[2]; day 7 or day 10 after Nb infection", "result": "almost no difference"}]}]}
